Counter-ions that a name gives are not always drawn.
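Further: Luminescence-based viability readout, five doses per compound, normalized against on-plate DMSO and empty-well controls, followed by dose-response curve fitting for every drug.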

The test system of the experiment is HCT116. The experiment in a line: efficacy (fitted maximal change in viability relative to DMSO control); higher = less cytotoxic (negative = loss of viability). Conditions: 48 h.
In the case of `Nc1ncnc2c1nc(Cl)n2[C@@H]1O[C@H](CO)[C@@H](O)[C@H]1O` [8-Cl-Ado], the efficacy was -73.3%.

Consider `CC(=O)O[C@@]12CO[C@@H]1C[C@H](O)[C@]3(C)[C@@H]2[C@H](OC(=O)C4=CC=CC=C4)[C@]5(O)C[C@H](O)/C(=C(/[C@@H](O)C3=O)C5(C)C)C` [10-Deacetylbaccatin], for which the efficacy was -50.2%.

For `CCC(=O)O[C@@]1(CC[C@H]2[C@@H]3CCC/4=C/C(=O)CC[C@]4(C)[C@H]3CC[C@]12C)C(=O)CO` [17 alpha-propionate], the efficacy was -15.6%.

With `CC(C)[C@H]1C(=O)N[C@H](CO)Cc2c[nH]c3cccc(c23)N1C` [(-)-Indolactam V], the efficacy is 9.83%.

`O=C([C@@H](Cc1cccc(C(F)(F)F)c1)N[S+](=O)([O-])c1cc(F)c2c(c1)CCNC2)N1CCCC1` [(R)-PFI-2]: the efficacy was -23.9%.

Take `O=C1c2c(O)cc(O)cc2O[C@H](c2ccc(O)c(O)c2)[C@H]1O` [(▒)-Taxifolin]: the efficacy worked out at 4.75%.

With `Cc1cccc(-c2nn(C(=S)Nc3ccccc3)cc2-c2ccnc3ccccc23)n1` [A-83-01], the efficacy is -22.3%.

In the case of `Clc1cc2c(NC3CCCC3)nnc(-c3ccncc3)c2cc1Cl` [A-196], the efficacy came out at 14.4%.

As for `COC1=CC2=C(C=C1OCCCN3CCCC3)\N=C(N)/C24CCC4` [A-366], the efficacy was determined as 8%.

Regarding `CC(=O)NCCCS(=O)(=O)[O-]` [ACAMPROSATE CALCIUM], the efficacy is 8.04%.

As for `COCc1c(-c2ccc(NC(=O)Nc3cc(C(F)(F)F)ccc3F)c(F)c2)c2c(N)ncnn2c1CN1CCOCC1` [ACTB-1003], the efficacy was -76%.

`N#Cc1ccnc(N2C(=O)CC[C@H]2C(=O)N(c2cncc(F)c2)C(C(=O)NC2CC(F)(F)C2)c2ccccc2Cl)c1` (stereo not given in full) [AG-120]: the efficacy was -22.2%.

For `C[C@H](Nc1nc(N[C@H](C)C(F)(F)F)nc(-c2cccc(Cl)n2)n1)C(F)(F)F` [AG-881], the efficacy is -28.1%.

On to `Cc1ccccc1C(C(=O)NC1CCCCC1)N(C(=O)Cn1ccnc1C)c1cccc(F)c1` (stereo not given) [AGI-5198], for which the efficacy is -18.4%.

Take `c1ccc(CNCc2ccc(CN3CCCNCCNCCCNCC3)cc2)nc1` [AMD-3465]: the efficacy is -13.1%.

`CN1N(C2=CC=CC=C2)C(=O)C(=C1/C3=CC=CC=C3)/C(=O)C4=CC=C(C)C(=C4N)C5=CC=C6N=C(C)C=CC6=C5` [AMG PERK 44]: the efficacy is -31.8%.

As for `COCCOC1=CN=C2\C=C/N([C@H](C)C3=NN=C4[N]3C=C(C=C4F)C5=C[N](C)N=C5)C(=O)C2=C1` [AMG-337], the efficacy was -4.95%.

Take `C[C@H]1CC[C@H](n2c3cnccc3c3cnc(Nc4ccc5c(n4)CCN(C(=O)CO)C5)nc32)CC1` [AMG-925 (FLX925)]: the efficacy was -21.6%.

Take `N=C(N)NN.N=C(N)NN.O=S(=O)(O)O` [AMINOGUANIDINE HYDROCHLORIDE]: the efficacy was -9.44%.

For the molecule `N#Cc1ccc(Oc2ccc3c(c2)COB3O)cc1` [AN-2728], the efficacy is -21.2%.

As for `COCC1(CO)C(=O)C2CCN1CC2` (stereo not given) [APR-246], the efficacy is -7.36%.

Regarding `Cc1cc(O)cc2c1[C@]1(C)CC[C@H]3C(C)(C)CCC[C@]3(C)[C@H]1C2` [AQX-MN-100], the efficacy came out at 19.8%.

Consider `CC1=CC=C(C=C1)\C2=N\C3=CC=C(Cl)C=C3OC2` [AR-7], for which the efficacy was -31.7%.

For the molecule `CC(C)[C@H](C(=O)Nc1ccc(C(=O)NO)cc1)c1ccccc1` [AR-42], the efficacy was -43.8%.

On to `C=CC(=O)N1CC(N2CCN(C(=O)CNc3cc(C4(C)CC4)c(Cl)cc3O)CC2)C1` [ARS-853], for which the efficacy is -63.4%.

`CN[C@@H](C)C(=O)N[C@H]1CN(C(=O)CC(C)C)CC[C@H]2CC[C@@H](C(=O)NC(c3ccccc3)c3ccccc3)N2C1=O` [AT-406]: the efficacy is -8.4%.

Take `C[C@@H]1CN(CC(=O)N2CC(C)(C)c3ncc(Cc4ccc(F)cc4)cc32)[C@@H](CN2CCOC[C@H]2C)CN1` [AT-IAP]: the efficacy was -62.8%.

In the case of `CC(=O)N1CCC[C@H]1C(=O)N[C@@H](Cc1c[nH]cn1)C(=O)N[C@@H](CO)C(=O)N[C@@H](CS)C(=O)N[C@@H](CC(N)=O)C(N)=O` [ATN-161], the efficacy was -6.15%.

On to `COC1=CC2=C(OC\C(=C2\C3=CC=C(F)C=C3)CN4CCCC4)C=C1` [AX-024], for which the efficacy was -55.9%.

Consider `CCN(CCCOc1ccc2c(Nc3cc(CC(=O)Nc4cccc(F)c4)[nH]n3)ncnc2c1)CCOP(=O)(O)O` [AZD1152], for which the efficacy is -24.9%.

Regarding `C[N]1N=CC=C1C/2=C(\C)N(C(=O)C(=C2)/C(=O)NCC3=NC=C(C=C3)[S+](C)([O-])=O)C4=CC=CC(=C4)C(F)(F)F` [AZD9668], the efficacy was 12.5%.

Consider `NC(=O)c1cnc(-c2ccc(C3(N)CCC3)cc2)c(-c2ccccc2)c1` [AZD-26], for which the efficacy is -66.9%.

For `COC1CCN(CC1)C(=O)C2=CC(=CC=C2F)CC/3=N/NC(=O)C4=CC=CC=C34` [AZD-2461], the efficacy is -29.2%.

As for `Cc1noc(C)c1-c1ccc(-c2cc(C(N)=O)c(NC(N)=O)s2)c(O[C@H]2CCNC2)c1` [AZD-3264], the efficacy was -40.3%.

Turning to `COc1cc2ncnc(Nc3cccc(Cl)c3F)c2cc1OC(=O)N1CCN(C)C[C@H]1C` [AZD-3759], the efficacy is -38.2%.

For `Cc1[nH]nc(C(F)(F)F)c1Cc1sc2c(c1C(=O)N1C[C@](C)(O)CO1)c(=O)n(C)c(=O)n2C(C)C` [AZD-3965], the efficacy was -11.2%.

`CC(C)C[C@H](CO)Nc1nc(S[C@@H](C)c2ccccc2)nc2nc(N)sc12` [AZD-8797]: the efficacy was -86.1%.

For `CCn1nc(C2CCN(C(=O)CCO)CC2)nc1-c1cnc(N)c(-c2nnc(C(C)(C)C)o2)n1` [AZD-8835], the efficacy is -18.9%.

As for `C[C@@H]1Cc2c([nH]c3ccccc23)[C@@H](c2c(F)cc(/C=C/C(=O)O)cc2F)N1CC(C)(C)F` [AZD-9496 maleate], the efficacy is -13.1%.

With `C[C@]\12CC[C@H](O)CC1=C/C[C@@H]3[C@@H]2CC[C@@]\4(C)[C@H]3C\C=C4C5=CN=CC=C5` [Abiraterone], the efficacy was found to be 7.6%.

On to `CC(=O)NCCC(=O)N[C@@H](CCC(N)=O)C(=O)N[C@@H](CO)C(=O)N[C@@H](CCC(N)=O)C(=O)N[C@@H](CCC(N)=O)C(=O)N[C@H](C(=O)N[C@@H](Cc1ccccc1)C(=O)N[C@]1(C)CCCCCC/C=C\CCC[C@@](C)(C(=O)N[C@@H](CCC(N)=O)C(=O)N[C@@H](CC(N)=O)C(N)=O)NC(=O)[C@H](CC(C)C)NC(=O)[C@H](CC(C)C)NC(=O)[C@@H](CCCNC(=N)N)NC(=O)[C@H](Cc2c[nH]c3ccccc23)NC(=O)[C@H](CC(C)C)NC(=O)[C@H](CC(N)=O)NC1=O)[C@H](C)O` [Ac-SAH-p53-8], for which the efficacy is -6.69%.

On to `NC(=O)c1ncn([C@@H]2O[C@H](CO)[C@@H](O)[C@H]2O)c1N` [Acadesine], for which the efficacy amounted to 7.93%.

For the molecule `CC#CC(=O)N1CCC[C@H]1c1nc(-c2ccc(C(=O)Nc3ccccn3)cc2)c2c(N)nccn12` [Acalabrutinib], the efficacy is -13.7%.

`C[C@H](NC1=NC=NC2=C1[NH]C=N2)\C3=N\C4=C(C=C(F)C=C4)C(=O)N3C5=CC=CC=C5` [Acalisib]: the efficacy is -38.2%.

`CC(=O)Nc1ccc(O)cc1` [Acetaminophen]: the efficacy worked out at 8.22%.

Turning to `N\C1=N\C2=C(N=C[N]2COCCO)C(=O)N1` [Aciclovir], the efficacy was -8.84%.

On to `Cc1cnc(C(=O)O)c[n+]1[O-]` [Acipimox], for which the efficacy is -8.25%.

`O=C(O)C(=O)Nc1cccc(-c2nnn[nH]2)c1` [Acitazanolast]: the efficacy turned out to be 17%.

In the case of `COc1cc(C)c(/C=C/C(C)=C/C=C/C(C)=C/C(=O)O)c(C)c1C` [Acitretin], the efficacy is -17.3%.

With `COc1ccc(-c2ccc3cc(C(=O)O)ccc3c2)cc1C12CC3CC(CC(C3)C1)C2` [Adapalene], the efficacy worked out at 9.71%.

As to `COC(=O)N1CC2(CC2)C[C@H](C(=O)NO)[C@H]1C(=O)N1CCN(c2ccccc2)CC1` [Aderbasib], the efficacy is -17%.

As to `COc1ccc2cccc(CCNC(C)=O)c2c1` [Agomelatine], the efficacy is -12.5%.

`CN(C)CC(C)(C)CNc1nn2c(-c3ccccc3)nnc2cc1C1CCC1` [Akt-I-1]: the efficacy was -8.48%.

Turning to `CN(C)CCc1c[nH]c2ccc(C[S+](=O)([O-])N3CCCC3)cc12` [Almotriptan], the efficacy is -6.46%.

With `CCOC(=O)[C@H]1O[C@@H]1C(=O)N[C@@H](CC(C)C)C(=O)NCCC(C)C` [Aloxistatin], the efficacy is -5.94%.

Consider `CCCCC[C@H](O)/C=C/[C@H]1[C@H](O)CC(=O)[C@@H]1CCCCCCC(=O)O` [Alprostadil], for which the efficacy is -12.3%.

As for `O=C(Nc1cc(Oc2cc(F)c(NC(=O)C3(C(=O)Nc4ccc(F)cc4)CC3)cc2F)ccn1)C1CC1` [Altiratinib], the efficacy is -68.8%.

As for `CN(C)c1nc(N(C)C)nc(N(C)C)n1` [Altretamine], the efficacy was -12.2%.

Take `NC12CC3CC(CC(C3)C1)C2` [Amantadine hydrochloride]: the efficacy is -15.1%.

With `COC(c1ccccc1)(c1ccccc1)[C@H](Oc1nc(C)cc(C)n1)C(=O)O` [Ambrisentan], the efficacy was -8.06%.

As for `N=C(N)NC(=O)c1nc(Cl)c(N)nc1N` [Amiloride hydrochloride], the efficacy was -10.8%.

For the molecule `NCCCCCC(=O)O` [Aminocaproic acid], the efficacy was -11.3%.

Regarding `CCN1CCCC1CNC(=O)c1cc([S+](=O)([O-])CC)c(N)cc1OC` (stereo not given) [Amisulpride], the efficacy is -6.46%.

Take `CC(C)c1ccc2oc3nc(N)c(C(=O)O)cc3c(=O)c2c1` [Amlexanox]: the efficacy is -24.9%.

`CC1(C)[C@@H](O[C@H]2O[C@H](C(=O)O)[C@@H](O)[C@H](O)[C@H]2O[C@@H]2O[C@H](C(=O)O)[C@@H](O)[C@H](O)[C@H]2O)CC[C@]2(C)[C@H]3C(=O)C=C4[C@@H]5C[C@@](C)(C(=O)O)CC[C@]5(C)CC[C@@]4(C)[C@]3(C)CC[C@@H]12` [Ammonium Glycyrrhizinate]: the efficacy came to 7.39%.

Source of the values: the supplement of paper PMC10290057.
